In general, Kd refers to the equilibrium constant for the complex coming apart.

This is an account of results in article PMC9628810 (Science (New York, N.Y.), 2022).

The target of test [1] is T1, N-NLP7(1–581) (GST-N-NLP7-8xHIS) (Arabidopsis thaliana, UniProt Q84TH9).
T1 sequence (Q84TH9 1-581): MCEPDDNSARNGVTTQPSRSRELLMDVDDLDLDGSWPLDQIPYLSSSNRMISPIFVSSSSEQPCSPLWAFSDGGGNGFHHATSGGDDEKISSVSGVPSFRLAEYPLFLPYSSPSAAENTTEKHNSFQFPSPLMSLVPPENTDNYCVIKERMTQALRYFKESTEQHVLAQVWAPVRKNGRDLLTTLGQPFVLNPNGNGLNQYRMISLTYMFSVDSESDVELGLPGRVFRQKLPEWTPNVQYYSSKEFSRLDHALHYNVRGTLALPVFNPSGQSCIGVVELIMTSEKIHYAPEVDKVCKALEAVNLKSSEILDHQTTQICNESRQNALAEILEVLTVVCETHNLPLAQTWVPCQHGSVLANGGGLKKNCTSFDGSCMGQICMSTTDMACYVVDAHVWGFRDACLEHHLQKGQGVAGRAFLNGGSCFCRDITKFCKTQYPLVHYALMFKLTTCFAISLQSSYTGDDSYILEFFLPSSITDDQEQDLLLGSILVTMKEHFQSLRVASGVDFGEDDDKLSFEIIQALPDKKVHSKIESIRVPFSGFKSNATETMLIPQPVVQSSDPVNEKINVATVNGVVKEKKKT
As to the kind of experiment: microscale thermophoresis. It counts as binding. In general terms: MST reads how a fluorescent partner responds to local heating, with and without ligand.

Another test addresses T2, NLP7 (GST-NLP7-8xHIS) (Arabidopsis thaliana, UniProt Q84TH9).
T2 sequence (Q84TH9 1-959): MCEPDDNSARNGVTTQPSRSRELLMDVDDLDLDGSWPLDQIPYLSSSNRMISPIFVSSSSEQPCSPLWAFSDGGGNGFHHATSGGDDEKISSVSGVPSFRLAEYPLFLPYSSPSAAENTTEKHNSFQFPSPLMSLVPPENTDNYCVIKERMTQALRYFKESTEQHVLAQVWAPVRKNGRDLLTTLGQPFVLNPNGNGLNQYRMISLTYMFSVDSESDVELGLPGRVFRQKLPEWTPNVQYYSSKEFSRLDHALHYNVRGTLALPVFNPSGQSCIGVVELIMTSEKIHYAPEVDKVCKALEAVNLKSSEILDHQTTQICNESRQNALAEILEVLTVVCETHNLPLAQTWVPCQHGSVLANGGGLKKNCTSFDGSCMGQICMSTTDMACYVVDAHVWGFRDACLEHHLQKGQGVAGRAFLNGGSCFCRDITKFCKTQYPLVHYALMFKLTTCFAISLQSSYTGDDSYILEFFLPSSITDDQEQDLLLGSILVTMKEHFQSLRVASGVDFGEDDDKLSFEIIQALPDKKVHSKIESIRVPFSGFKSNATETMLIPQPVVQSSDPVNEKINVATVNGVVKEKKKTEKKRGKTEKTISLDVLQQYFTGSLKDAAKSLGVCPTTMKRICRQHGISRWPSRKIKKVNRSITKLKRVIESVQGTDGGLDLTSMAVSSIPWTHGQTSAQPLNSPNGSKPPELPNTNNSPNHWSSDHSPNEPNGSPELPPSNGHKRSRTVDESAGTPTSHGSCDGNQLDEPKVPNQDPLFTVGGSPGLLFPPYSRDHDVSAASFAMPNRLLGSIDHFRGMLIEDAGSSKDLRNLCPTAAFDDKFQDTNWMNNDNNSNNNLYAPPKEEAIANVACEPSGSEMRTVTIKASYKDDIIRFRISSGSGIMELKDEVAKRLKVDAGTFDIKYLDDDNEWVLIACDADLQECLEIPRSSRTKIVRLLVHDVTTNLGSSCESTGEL
As to the kind of experiment: microscale thermophoresis. The format is binding.

Regarding `O=[N+]([O-])O` [nitrate], the Kd in test [1] came to 86 ± 38 µM; at NLP7 (GST-NLP7-8xHIS) it was 52 ± 20 µM.
